What was measured:
rats = assay: d-amphetamine-induced hyperactivity in rats; type: in vivo, rat; settings: positive control dose, previously observed
Method: Effect of a Novel Test Compound and Xanomeline on d-Amphetamine-Induced Hyperactivity in Rats
The aim of the study is to examine the effect of a novel test compound on d-amphetamine induced hyperactivity in rats. Schizophrenia is a complex multifactorial disease that cannot be fully represented by a single experimental procedure. Antipsychotic-like behaviour was assessed in rats by the inhibition of hyperactivity (or hyperlocomotion) elicited by d-amphetamine. This procedure is sensitive to clinically relevant dopamine receptor antagonists and is therefore considered suitable for comparing muscarinic agonists that influence dopaminergic signalling. […] Statistical analysis typically involved three-way analysis of covariance or robust regression with treatment, day and rack as factors and activity during the 30 minutes prior to treatment as a covariate, followed by appropriate multiple comparison tests. A P value of <0.05 was considered statistically significant and is marked accordingly in all subsequent figures.

[1] = target: T1, human muscarinic M1 receptor (Homo sapiens, UniProt P11229); assay: Alphascreen Surefire phospho-ERK1/2 functional assay, M1; type: cell-based; settings: phospho-ERK1/2; for EC50: read-out: pEC50 M1 (converted); for Emax: CHO, read-out: % Emax cf. ACh (M1), CHO cells stably expressing human M1
T1 sequence (P11229 1-460): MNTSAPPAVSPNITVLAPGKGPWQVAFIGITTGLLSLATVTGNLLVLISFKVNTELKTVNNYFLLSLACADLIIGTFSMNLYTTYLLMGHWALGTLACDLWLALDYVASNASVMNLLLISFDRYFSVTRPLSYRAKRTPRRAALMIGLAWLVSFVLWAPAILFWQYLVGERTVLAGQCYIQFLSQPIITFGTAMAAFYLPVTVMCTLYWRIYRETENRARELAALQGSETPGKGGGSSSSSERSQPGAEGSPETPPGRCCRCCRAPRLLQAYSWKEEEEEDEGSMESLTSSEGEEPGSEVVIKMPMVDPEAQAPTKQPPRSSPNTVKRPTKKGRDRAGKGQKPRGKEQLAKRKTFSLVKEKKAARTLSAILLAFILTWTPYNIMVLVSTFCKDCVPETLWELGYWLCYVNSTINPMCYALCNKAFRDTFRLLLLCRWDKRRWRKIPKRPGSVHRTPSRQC
In short: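 CHO cells stably expressing human M1, M2 or M3 receptor, serum-starved overnight, were stimulated with agonist for 5 min at 37 °C. Cells were then lysed and ERK1/2 phosphorylation detected by AlphaScreen SureFire.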

[2] = target: T2, human muscarinic M2 receptor (Homo sapiens, UniProt P08172); assay: Alphascreen Surefire phospho-ERK1/2 functional assay, M2; type: cell-based; settings: for EC50: CHO cells stably expressing human M2, read-out: pEC50 M2 (converted); for Emax: CHO, read-out: % Emax cf. ACh (M2), CHO cells stably expressing human M2, relative to ACh
T2 sequence (P08172 1-466): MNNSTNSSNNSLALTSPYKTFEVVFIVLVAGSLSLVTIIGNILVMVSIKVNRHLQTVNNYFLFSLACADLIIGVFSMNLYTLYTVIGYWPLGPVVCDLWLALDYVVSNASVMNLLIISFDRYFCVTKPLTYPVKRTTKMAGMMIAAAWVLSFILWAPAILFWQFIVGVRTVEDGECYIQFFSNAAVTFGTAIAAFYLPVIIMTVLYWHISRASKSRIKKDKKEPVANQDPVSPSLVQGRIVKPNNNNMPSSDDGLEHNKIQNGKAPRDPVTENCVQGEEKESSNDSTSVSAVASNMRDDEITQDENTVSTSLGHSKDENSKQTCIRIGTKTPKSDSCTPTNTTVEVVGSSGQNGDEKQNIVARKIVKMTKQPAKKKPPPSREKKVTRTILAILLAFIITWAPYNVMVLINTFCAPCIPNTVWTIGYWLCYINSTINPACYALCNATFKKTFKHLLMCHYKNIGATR
Method: (§1) ERK1/2 phosphorylation is a downstream consequence of both Gq/11 and Gi/o protein coupled receptor activation, making it highly suitable for the assessment of M1, M3 (Gq/11 coupled) and M2, M4 receptors (Gi/o coupled), rather than using different assay formats for different receptor subtypes. CHO cells stably expressing the human muscarinic M1, M2, M3 or M4 receptor were plated (25K/well) onto 96-well tissue culture plates in MEM-alpha+10% dialysed FBS. Once adhered, cells were serum-starved overnight. Agonist stimulation was performed by the addition of 5 μL agonist to the cells for 5 min (37° C.). Media was removed and 50 μL of lysis buffer added. After 15 min, a 4 μL sample was transferred to 384-well plate and 7 μL of detection mixture added.

[3] = target: T3, human muscarinic M3 receptor (Homo sapiens, UniProt P20309); assay: Alphascreen Surefire phospho-ERK1/2 functional assay, M3; type: cell-based; settings: phospho-ERK1/2; for EC50: CHO cells stably expressing human M3, read-out: pEC50 M3 (converted); for Emax: CHO, read-out: % Emax cf. ACh (M3), CHO cells stably expressing human M3, relative to ACh
T3 construct: expressed in transfected cells
T3 sequence (P20309 whole entry): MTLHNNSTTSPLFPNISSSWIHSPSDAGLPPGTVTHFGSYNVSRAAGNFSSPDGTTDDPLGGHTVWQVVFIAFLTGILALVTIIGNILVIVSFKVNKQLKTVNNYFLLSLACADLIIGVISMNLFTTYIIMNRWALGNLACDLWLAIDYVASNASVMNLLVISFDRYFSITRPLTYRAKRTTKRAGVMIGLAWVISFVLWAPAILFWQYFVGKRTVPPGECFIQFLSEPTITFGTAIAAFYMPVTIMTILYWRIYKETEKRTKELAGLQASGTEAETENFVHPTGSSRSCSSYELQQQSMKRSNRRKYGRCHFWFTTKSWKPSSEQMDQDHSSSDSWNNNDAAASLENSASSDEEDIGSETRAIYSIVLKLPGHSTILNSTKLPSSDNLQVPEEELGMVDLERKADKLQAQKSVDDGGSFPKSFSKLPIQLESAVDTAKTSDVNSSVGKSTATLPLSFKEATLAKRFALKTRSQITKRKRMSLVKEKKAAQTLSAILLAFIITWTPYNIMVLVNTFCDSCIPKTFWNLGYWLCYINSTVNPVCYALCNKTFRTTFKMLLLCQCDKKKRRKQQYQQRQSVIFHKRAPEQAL
Method: as §1

[4] = target: T4, human muscarinic M4 receptor (Homo sapiens, UniProt P08173); assay: Alphascreen Surefire phospho-ERK1/2 functional assay, M4; type: cell-based; settings: phospho-ERK1/2; for EC50: read-out: pEC50 M4 (converted); for Emax: CHO, read-out: % Emax cf. ACh (M4), CHO cells stably expressing human M4
T4 construct: expressed in transfected cells
T4 sequence (P08173 1-479): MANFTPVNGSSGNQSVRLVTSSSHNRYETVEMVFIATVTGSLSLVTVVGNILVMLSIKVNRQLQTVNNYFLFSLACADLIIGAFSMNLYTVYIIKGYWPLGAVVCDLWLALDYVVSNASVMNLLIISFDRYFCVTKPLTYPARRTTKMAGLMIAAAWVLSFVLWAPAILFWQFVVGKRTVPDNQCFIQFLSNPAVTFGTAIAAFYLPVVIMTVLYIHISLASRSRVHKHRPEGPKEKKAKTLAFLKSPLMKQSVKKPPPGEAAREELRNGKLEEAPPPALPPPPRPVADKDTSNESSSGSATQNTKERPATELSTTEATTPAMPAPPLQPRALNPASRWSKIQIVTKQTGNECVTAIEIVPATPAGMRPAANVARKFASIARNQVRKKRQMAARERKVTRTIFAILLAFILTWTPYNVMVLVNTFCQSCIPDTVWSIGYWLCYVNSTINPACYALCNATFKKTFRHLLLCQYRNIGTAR

[5] = CHO cells stably expressing human M1
[6] = CHO cells stably expressing human M4

| Compound | d-amphetamine induced hyperactivity (rats) | EC50 [1, 5] [nM] | Emax ([1]; relative to ACh) [%] | EC50 [2] [nM] | Emax [2] [%] | EC50 [3] [nM] | Emax [3] [%] | EC50 [4, 6] [nM] | Emax ([4]; relative to ACh) [%] | % Emax cf. ACh (M1) ([1]; CHO cells stably expressing human M1, relative to ACh) [%] | % Emax cf. ACh (M4) ([4]; CHO cells stably expressing human M4, relative to ACh) [%] |
| --- | --- | --- | --- | --- | --- | --- | --- | --- | --- | --- | --- |
| CCCCCCOc1nsnc1C1=CCCN(C)C1 [xanomeline] | significantly reduce |  |  |  |  |  |  |  |  |  |  |
| CCOC(=O)N1CCC2(CC(N3CCC(N(CC)C(=O)OC)CC3)C2)C1 (single isomer, unassigned) [2-39 Isomer 2] |  | 316 | 39 | > 20000 | 12 | > 20000 | 25 | 25.1 | 126 |  |  |
| [2H]C([2H])(C)OC(=O)N1CCC2(CC(N3CCC(N(CC)C(C)=O)CC3)C2)C1 (single isomer, unassigned) [2-38 Isomer 2] |  | 631 | 76 | > 20000 | 21 | > 20000 | 1 | 20 | 115 |  |  |
| CCOC(=O)N1CCC2(CC(N3CCC(N(Cc4ccon4)C4CC4)CC3)C2)C1 (single isomer, unassigned) [2-10 Isomer 2] |  | 794 | 42 | > 20000 | 11 | > 20000 | 7 | 31.6 | 122 |  |  |
| CCOC(=O)N1CCC2(CC(N3CCC(C(C)N(C(C)=O)C4CC4)CC3)C2)C1 (single isomer, unassigned) [2-13 Isomer 2] |  | > 20000 | 18 | > 20000 | 5 | > 20000 | 4 | 126 | 88 |  |  |
| CCOC(=O)N1CCC2(CC(N3CCC(N(CC(C)C)C(C)=O)CC3)C2)C1 (single isomer, unassigned) [2-19 Isomer 2] |  | 100 |  | > 20000 | 31 | > 20000 | 58 | 63.1 |  | 115 | 118 |
| CCOC(=O)N1CCC2(CC(N3CCC(N(OC)C(C)=O)CC3)C2)C1 (single isomer, unassigned) [2-32 Isomer 2] |  | 2510 | 82 | > 20000 | 9 | > 20000 | 5 | 39.8 | 115 |  |  |
| CCOC(=O)N1CCC2(CC(N3CCC(N(CC)OC)CC3)C2)C1 (single isomer, unassigned) [2-57 Isomer 2] |  | 1000 | 40 | > 20000 | 11 | > 20000 | 23 | 39.8 | 107 |  |  |
| CCOC(=O)N1CCC2(CC(N3CCC(N(C(C)=O)C4CCC4)CC3)C2)C1 (single isomer, unassigned) [2-6 Isomer 2] |  | 100 | 101 | > 20000 | 7 | > 20000 | 14 | 31.6 | 98 |  |  |
| CCOC(=O)N1CCC2(CC(N3CCC(N(CC(F)(F)F)C(=O)OC)CC3)C2)C1 (single isomer, unassigned) [2-42 Isomer 2] |  | 1580 | 120 | > 20000 | 21 | > 20000 | 39 | 100 | 112 |  |  |
| CCOC(=O)N1CCC2(CC(N3CCC(C(C)N(C(=O)CC)C4CC4)CC3)C2)C1 (single isomer, unassigned) [2-14 Isomer 2] |  | 2510 | 47 | > 20000 | 12 | > 20000 | 5 | 100 | 108 |  |  |
| CCOC(=O)N1CCC2(CC(N3CCC(N(CC)Cc4cnco4)CC3)C2)C1 (single isomer, unassigned) [2-60 Isomer 2] |  | > 20000 | 62 | > 20000 | 20 | > 20000 | 56 | 63.1 | 111 |  |  |
| CCOC(=O)N1CCC2(CC(N3CCC(SCc4ccccc4)CC3)C2)C1 (single isomer, unassigned) [2-67 Isomer 2] |  | > 20000 | 19 | > 20000 | 2 | > 20000 | 2 | 31.6 | 55 |  |  |
| CCOC(=O)N1CCC2(CC(N3CCC(N(CC)CC(F)(F)F)CC3)C2)C1 (single isomer, unassigned) [2-7 Isomer 2] |  | 79.4 | 120 | > 20000 | 16 | > 20000 | 10 | 12.6 | 118 |  |  |
| CCOC(=O)N1CCC2(CC(N3CCC(N(C(=O)CC)C4CC4)CC3)C2)C1 (single isomer, unassigned) [2-5 Isomer 2] |  | 631 | 57 | > 20000 | 5 | > 20000 | 5 | 100 | 91 |  |  |
| CCOC(=O)N1CCC2(CC(N3CCC(C(C)(C)N(CC)C(C)=O)CC3)C2)C1 (single isomer, unassigned) [2-64 Isomer 2] |  | 2510 | 46 | > 20000 | 2 | > 20000 | 4 | 31.6 | 128 |  |  |
| CCOC(=O)N1CCC2(CC(N3CCC(N(C(=O)OC)C4COC4)CC3)C2)C1 (single isomer, unassigned) [2-47 Isomer 2] |  | 398 | 113 | 501 | 29 | 1260 | 63 | 63.1 | 90 |  |  |
| CCOC(=O)N1CCC2(CC(N3CCC(N(CC)C(=O)OCC)CC3)C2)C1 (single isomer, unassigned) [2-40 Isomer 2] |  | 501 | 39 | > 20000 | 32 | > 20000 | 9 | 63.1 | 110 |  |  |
